From patent publication US20090175845A1, “METHODS FOR IDENTIFYING COMPOUNDS THAT MODULATE PHB DOMAIN PROTEIN ACTIVITY AND COMPOSITIONS THEREOF” (THE TRUSTEES OF COLUMBIA UNIVERSITY IN THE CITY OF NEW YORK, priority 2005, published 2009)

How the values were obtained:
[1] = molecular target: T1, NusA fused to the cholesterol binding domain of Podocin (amino acids 119-284) (Mus musculus, UniProt Q91X05); test: In vitro cholesterol interaction, scintillation counting of bead-bound recombinant protein
T1 construct: made in house; host or cells: E. coli
T1 sequence (Q91X05 119-284): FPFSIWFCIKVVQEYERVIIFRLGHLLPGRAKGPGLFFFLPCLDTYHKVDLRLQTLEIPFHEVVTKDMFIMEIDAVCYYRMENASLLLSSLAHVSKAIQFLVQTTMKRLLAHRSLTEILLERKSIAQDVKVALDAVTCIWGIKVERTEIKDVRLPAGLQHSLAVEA
Description: In vitro cholesterol interaction. Podocin truncations were cloned into various bacterial expression vectors and tested for the expression of soluble recombinant fusion proteins. […] Purity of the preparation was confirmed on Coomassie gels. For in vitro cholesterol interaction assays 2-20 μg of affinity purified Podocin protein was bound to 30 μl of Ni+ beads and incubated with 0.1 μCi [^3H]cholesterol (Amersham) complexed with low amounts of cyclodextrine. After binding for 10 minutes at 37° C. beads were washed extensively and counted in a scintillation counter. To confirm equal loading of the beads aliquots of the bound protein were run on Coomassie gels. Competition experiments were performed with 1 μg of affinity purified Podocin protein fused to NusA or NusA alone as a control. Samples were incubated with radioactively labeled cholesterol in the absence (no cold competition) or presence (cold competition) of varying amounts of […]. Cold competition was approximately 100-fold excess of cold cholesterol. The sample was washed extensively and subjected to scintillation counting.
The importance of different regions of Podocin for cholesterol binding was tested by fusing them to the extracellular and transmembrane domains of Nephrin. […]

[2] = molecular target: T2, Podocin (Mus musculus, UniProt Q91X05); test: Detergent-resistant membrane (DRM) fractionation by density gradient centrifugation; assay type: cell-based; details: limited cholesterol depletion with MBCD; readdition of cholesterol, FIG. 1D
T2 construct: expressed in transfected cells; host or cells: HEK 293T
T2 sequence (Q91X05 1-385): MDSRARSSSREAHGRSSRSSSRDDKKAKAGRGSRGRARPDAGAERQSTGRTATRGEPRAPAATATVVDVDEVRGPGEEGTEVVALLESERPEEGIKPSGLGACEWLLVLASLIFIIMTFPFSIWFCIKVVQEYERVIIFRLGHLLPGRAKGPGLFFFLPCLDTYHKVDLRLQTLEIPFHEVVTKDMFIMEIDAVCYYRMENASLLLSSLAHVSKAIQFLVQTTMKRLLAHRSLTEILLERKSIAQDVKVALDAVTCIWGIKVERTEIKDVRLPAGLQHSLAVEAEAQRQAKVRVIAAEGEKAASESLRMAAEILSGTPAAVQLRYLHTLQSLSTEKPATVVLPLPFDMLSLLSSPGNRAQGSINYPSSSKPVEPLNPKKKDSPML
Description: Preparation of Detergent-Resistant Membrane Domains and Cholesterol Measurement—For preparation of low-density Triton® X-100—insoluble membrane domains (DRM; LDF) HEK 293T cells were homogenized by 20 strokes in a Dounce homogenizer in 1 ml of MBS buffer (250 mM NaCl, 5 mM EDTA, 10 mM Tris, pH 7.4, proteinase inhibitors) in the presence of 1% Triton® X-100 and centrifuged for ten minutes at 3,000×g at 4° C. The lysates were incubated for 45 minutes on ice in the presence of 1% Triton® X-100, adjusted to 45% sucrose and pipetted at the bottom of an ultracentrifuge tube. Samples were then overlaid with a sucrose step gradient (2 ml of 30% sucrose and 1 ml of 5% sucrose in MBS) as described previously {Huber, 2003 #205}. Gradients were centrifuged for 20 hours at 200,000×g at 4° C. in a swing-out rotor, and seven fractions ([…] each) were collected starting from the top and analyzed by SDS-PAGE. Cholesterol was measured using the Amplex® Red Cholesterol Assay Kit (Molecular Probes).
Cell Culture Studies. Most cell studies used HEK 293T cells that were grown in DMEM as described [Huber et al. (2001) J. Biol. Chem. 18:18]. Cholesterol-depleted cells were prepared by growing cells in DMEM with pravastatin (8 μM) for two days and then methyl-β-cyclodextrine (MBCD; 5 mM) for 30 minutes just before the experiment. […]

CC(C)CCC[C@@H](C)[C@H]1CC[C@H]2[C@@H]3CC=C4C[C@@H](O)CC[C@]4(C)[C@H]3CC[C@]12C [cholesterol]
direct binding of [3H]cholesterol in vitro ([1]; Podocin fragments produced in E. coli, 10 minutes at 37° C.): sufficient for cholesterol binding
cold competition of [3H]cholesterol binding ([1]; approximately 100-fold excess of unlabeled cholesterol): competed
Podocin in DRM fractions [2]: could be reversed
